How the values were obtained:
MDA-MB-231 = assay: Antiproliferative activity against human MDA-MB-231 cells incubated for 72 hrs by CellTiter-Glo luminescence assay; type: functional; settings: MDA-MB-231, 72 h
Raji = assay: Antiproliferative activity against human Raji cells incubated for 72 hrs by CellTiter-Glo luminescence assay; type: functional
JeKo-1 = assay: Antiproliferative activity against human JeKo1 cells incubated for 72 hrs by CellTiter-Glo luminescence assay; type: functional; settings: JeKo-1, 72 h
SK-MEL19 = assay: Antiproliferative activity against human SK-MEL-19 cells incubated for 72 hrs by CellTiter-Glo luminescence assay; type: functional; settings: SK-MEL19, 72 h
T47D = assay: Antiproliferative activity against human T47D cells incubated for 72 hrs by CellTiter-Glo luminescence assay; type: functional
MIA PaCa-2 = assay: Antiproliferative activity against human MIAPaCa2 cells incubated for 72 hrs by CellTiter-Glo luminescence assay; type: functional; settings: MIA PaCa-2, 72 h
U-87 MG = assay: Antiproliferative activity against human U87MG cells incubated for 72 hrs by CellTiter-Glo luminescence assay; type: functional, U-87MG ATCC
MV4-11 = assay: Antiproliferative activity against human MV4-11 cells incubated for 72 hrs by CellTiter-Glo luminescence assay; type: functional; settings: MV4-11, 72 h
HCT-116 = assay: Antiproliferative activity against human HCT116 cells incubated for 72 hrs by CellTiter-Glo luminescence assay; type: functional; settings: HCT-116, 72 h
DU-145 = assay: Antiproliferative activity against human DU145 cells incubated for 72 hrs by CellTiter-Glo luminescence assay; type: functional; settings: DU-145, 72 h
PC-3 = assay: Antiproliferative activity against human PC3 cells incubated for 72 hrs by CellTiter-Glo luminescence assay; type: functional; settings: PC-3, 72 h

SMILES | GI50 (MDA-MB-231) | GI50 (Raji) | GI50 (JeKo-1) | GI50 (SK-MEL19) | GI50 (T47D) | GI50 (MIA PaCa-2) | GI50 (U-87 MG) | GI50 (MV4-11) | GI50 (HCT-116) | GI50 (DU-145) | GI50 (PC-3)
CC(=O)c1c(C)c2cnc(Nc3ccc(N4CCNCC4)cn3)nc2n(C2CCCC2)c1=O [PALBOCICLIB] | 30 µM | 30 µM | 30 µM | 30 µM | – | – | – | – | – | – | –
CS(=O)(=O)CCNCc1ccc(-c2ccc3ncnc(Nc4ccc(OCc5cccc(F)c5)c(Cl)c4)c3c2)o1 [LAPATINIB] | 20 µM | – | 5 µM | 5 µM | 40 µM | 10 µM | 10 µM | 10 µM | 20 µM | 20 µM | –
CS(=O)(=O)N1CCN(Cc2cc3nc(-c4cccc5[nH]ncc45)nc(N4CCOCC4)c3s2)CC1 [PICTILISIB] | 12 µM | – | 5 µM | 6 µM | 3 µM | 12 µM | 6 µM | 3 µM | – | – | 3 µM
